Data from US20250326765A1, “PDE4B INHIBITOR AND USE THEREOF” (XIZANG HAISCO PHARMACEUTICAL CO., LTD., priority 2022, published 2025).
Where two headings read alike, the source gives them in different places.

Assays:
[1] = target: T1, PDE4B2 (Homo sapiens, UniProt Q07343); assay: Effect of compounds on PDE4B2 activity (fluorescence polarization kit); assay type: biochemical
T1 construct: purchased BPS Bioscience 60343
Description: The effect of compounds on PDE4B2 activity was detected by a fluorescence polarization kit (BPS Bioscience, Catalog #60343). According to the instructions of the kit, FAM-Cyclic-3′,5′-AMP at a final concentration of […], 1 ng/well of PDE4B2 (PDE buffer was added to the negative control well), and a compound diluted in a gradient manner (PDE buffer containing 10% DMSO was added to the positive control well) were added to each well, fully mixed, and then reacted at room temperature for 1 h. The Binding Agent was diluted with the Binding Agent Diluent (cAMP) at a ratio of 1:100 for later use, the Binding Agent dilution was taken and added to the test plate at 50 μl/well and incubated at room temperature with slow shaking for 20 minutes. After the incubation was complete, Envision was used for FP detection, with Excitation at 480 nm and Emission at 535 nm. FP was usually represented by mP value.
[formula] • I∥ (S535): fluorescence intensity in parallel direction • I⊥ (P535): fluorescence intensity in perpendicular direction • G: G factor=1
(§1) [formula] • mP(sample): mP of the test compound in a reaction well • mP(negative control): mP in the negative control well • mP(positive control): mP in the positive control well
(§2) According to the calculated inhibition rate at each concentration, the IC50 value of each compound was calculated by GraphPad Prism 8 software.

[2] = target: T2, PDE4D2 (Homo sapiens, UniProt Q08499); assay: Effect of compounds on PDE4D2 activity (fluorescence polarization kit); assay type: biochemical; conditions: class symbols
T2 construct: purchased BPS Bioscience 60345
Description: The effect of compounds on PDE4D2 activity was detected by a fluorescence polarization kit (BPS Bioscience, Catalog #60345). During the reaction, 12.5 μL of 0.272 ng/well of an enzyme (final concentration: 0.068 ng/well) and 12.5 μL of the compound diluted in a gradient manner (DMSO concentration: 4%) were first pre-incubated at room temperature for 15 minutes, the same volume of the enzyme at the same concentration and 12.5 μL of PDE buffer containing 4% DMSO were added to the positive control well, and 25 μL of PDE buffer containing 2% DMSO was added to the negative control well. After completion, 25 μL of […] FAM-Cyclic-3′,5′-AMP (final concentration: […]) was added to each well, fully mixed, and then incubated at room temperature with slow shaking for 30 minutes. The Binding Agent was diluted with the Binding Agent Diluent (cAMP) at a ratio of 1:100 for later use, 100 μl/well of the Binding Agent dilution was taken and added to all wells of the test plate and incubated at room temperature with slow shaking for 1 hour.
After the incubation was complete, BMG LRBTECH microplate reader was used for FP detection, with Excitation at 485 nm and Emission at 520 nm. FP was usually represented by mP value.
[formula] • I∥ (S520): fluorescence intensity in parallel direction • I⊥ (P520): fluorescence intensity in perpendicular direction • G: G factor=1
as §1, §2

[3] = Inhibition of LPS-induced TNF-α release from human peripheral blood mononuclear cells in vitro; assay type: cell-based; conditions: PBMC, hPBMC, 100 ng/mL LPS, 4 h; for IC50: class symbols, read-out: Re IC50 (nM) (relative IC50), TNF-α induced by LPS; for Emax: read-out: Max inhibition (%)
Description: Normal human peripheral blood which was anticoagulated (citric acid anticoagulation) was collected, and hPBMCs were prepared by Ficoll-Paque PLUS (Cytiva, Cat #17144002, density 1.077 g/mL). The concentration of hPBMC cells was adjusted to 0.25×10^6 cells/mL with RPMI1640 medium and inoculated into a 96-well plate in an amount of 50000 cells per well. Subsequently, different concentrations of drugs were added for pre-incubation for 1 h (the DMSO final concentration was 0.1%, and the positive and negative control wells had the same volume of RPMI1640 containing 0.1% DMSO). After the pre-incubation was complete, 100 ng/mL LPS (SIGMA, L2630) was added to the compound and positive control wells, and the negative control well had the same volume of RPMI1640 containing 0.1% DMSO. Incubation was carried out for 4 h in an incubator at 37° C. and 5% CO2. The cell supernatant was collected, and the content of TNF-α in the supernatant sample was detected by human TNF-α Elisa quantitative test kit (Sino Biological, Cat #KIT10602). The IC50 value was calculated using GraphPad Prism software.

[4] = target: T3, PDE4B1 (Homo sapiens, UniProt Q07343); assay: Effect of compounds on PDE4B1 activity (IMAP fluorescence polarization kit); assay type: biochemical; conditions: class symbols
T3 construct: purchased BPS 60041
Description: The IMAP Reaction Buffer containing 0.1% BSA (5×) in the kit was diluted into a 1-fold reaction buffer containing 1 mM DTT. 0.12 nM PDE4B1 (BPS, Cat #60041) was added to the 1-fold reaction buffer to form a 2-fold enzyme solution. 10 μL of the 2-fold enzyme solution was added to wells of a 384-well reaction plate. For the negative control well, 10 μL of the 1-fold reaction buffer was used instead of the enzyme solution. Centrifugation at 1000 rpm for 1 minute and incubation at room temperature for 15 minutes were carried out. 0.2 uM FAM-labeled cAMP (FAM-cAMP, Molecular Device, Cat #R7506) was added to the 1-fold reaction buffer to form a 2-fold substrate solution. 10 μL of the 2-fold substrate solution was added to each well of the 384-well reaction plate. Centrifugation at 1000 rpm for 1 minute was carried out. A reaction was carried out at room temperature for 20 minutes. IMAP Progressive Binding Buffer A (5×), IMAP Progressive Binding Buffer B (5×), and IMAP Progressive Binding Reagent (provided by IMAP FP IPP Explorer Kit) were prepared into a reaction stop solution according to the instructions for use. 60 μL of an […] reaction stop solution was added to each well of the 384-well reaction plate to stop the reaction, and the reaction product was centrifuged at 1000 rpm for 1 minute. Incubation at room temperature in the dark for 60 minutes was carried out. The mP values (Ex480/Em535 (s), Em535 (p)) were read by a microplate reader (Envision).
FP was usually represented by mP value. mP value for FP measurement=1000*(S−G*P)/(S+G*P) • S: fluorescence intensity in parallel direction • P: fluorescence intensity in perpendicular direction • G: G factor=1
as §1
According to the calculated inhibition rate at each concentration, the IC50 value of each compound was calculated by XLFit excel add-in version 5.4.0.8 software.
Y=Bottom+(Top−Bottom)/(1+(IC50/X)^HillSlope) Fitting formula: […]

[5] = Pharmacokinetic test in mice; assay type: in vivo, ICR mice
Description: 5.1 Experimental animals: Male ICR mice, 20-25 g, 6 mice/compound. Purchased from Chengdu Ddossy Experimental Animals Co., Ltd.
5.2 Experimental design: On the day of the experiment, 42 ICR mice were randomly grouped according to their body weights. The animals were fasted with water available for 12-14 h one day before administration and fed 4 h after administration.
Before and after administration, 0.06 mL of blood was taken from the orbit under isoflurane anesthesia and placed in an EDTAK2 centrifuge tube for centrifugation at 5000 rpm at 4-C for 10 min, followed by plasma collection. The blood collection time points for the intravenous group and intragastric group were both 0 m, 5 mi, 15 mi, 30 mi, 1 h, 2 h, 4 h, 6 h, 8 h, and 24 h. Before analysis and detection, all the samples were stored at −80° C., and the samples were subjected to quantitative analysis using LC-MS/MS.

[6] = class symbols, read-out: PDE4B2 IC50
[7] = male, ICR, mouse, iv, plasma, i.v. (5 mg/kg)
[8] = male, ICR, mouse, po, plasma, i.g. (10 mg/kg)

T2 sequence (Q08499 303-809): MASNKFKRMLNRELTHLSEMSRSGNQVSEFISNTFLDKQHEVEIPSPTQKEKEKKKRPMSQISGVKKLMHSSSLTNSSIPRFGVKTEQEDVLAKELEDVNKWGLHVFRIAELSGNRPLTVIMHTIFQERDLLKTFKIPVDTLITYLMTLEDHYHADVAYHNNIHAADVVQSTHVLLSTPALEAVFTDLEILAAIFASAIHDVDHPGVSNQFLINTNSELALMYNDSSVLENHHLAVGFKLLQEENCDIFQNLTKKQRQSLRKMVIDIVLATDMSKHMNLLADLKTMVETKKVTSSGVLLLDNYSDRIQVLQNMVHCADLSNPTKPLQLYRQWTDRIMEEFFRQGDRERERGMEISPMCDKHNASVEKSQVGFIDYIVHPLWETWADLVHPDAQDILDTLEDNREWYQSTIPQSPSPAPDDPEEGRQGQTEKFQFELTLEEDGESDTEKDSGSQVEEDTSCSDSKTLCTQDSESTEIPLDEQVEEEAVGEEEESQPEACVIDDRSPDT
T1 sequence (Q07343 1-564 isoform Q07343-2): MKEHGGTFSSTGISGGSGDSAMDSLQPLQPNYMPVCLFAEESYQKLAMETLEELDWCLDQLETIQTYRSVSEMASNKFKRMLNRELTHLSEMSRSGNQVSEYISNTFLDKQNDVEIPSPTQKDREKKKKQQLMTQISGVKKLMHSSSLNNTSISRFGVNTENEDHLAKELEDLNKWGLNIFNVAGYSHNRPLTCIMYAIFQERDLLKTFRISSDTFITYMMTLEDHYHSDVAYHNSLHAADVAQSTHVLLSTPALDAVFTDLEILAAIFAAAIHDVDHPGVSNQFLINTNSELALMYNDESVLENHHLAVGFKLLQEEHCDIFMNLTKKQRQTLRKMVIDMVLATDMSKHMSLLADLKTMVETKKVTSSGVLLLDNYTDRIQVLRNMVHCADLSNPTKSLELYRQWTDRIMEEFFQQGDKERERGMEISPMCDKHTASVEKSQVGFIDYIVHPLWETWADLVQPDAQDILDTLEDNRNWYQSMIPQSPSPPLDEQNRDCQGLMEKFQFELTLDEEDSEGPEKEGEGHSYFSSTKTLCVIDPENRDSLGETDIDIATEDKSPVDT
T3 sequence (Q07343 whole entry): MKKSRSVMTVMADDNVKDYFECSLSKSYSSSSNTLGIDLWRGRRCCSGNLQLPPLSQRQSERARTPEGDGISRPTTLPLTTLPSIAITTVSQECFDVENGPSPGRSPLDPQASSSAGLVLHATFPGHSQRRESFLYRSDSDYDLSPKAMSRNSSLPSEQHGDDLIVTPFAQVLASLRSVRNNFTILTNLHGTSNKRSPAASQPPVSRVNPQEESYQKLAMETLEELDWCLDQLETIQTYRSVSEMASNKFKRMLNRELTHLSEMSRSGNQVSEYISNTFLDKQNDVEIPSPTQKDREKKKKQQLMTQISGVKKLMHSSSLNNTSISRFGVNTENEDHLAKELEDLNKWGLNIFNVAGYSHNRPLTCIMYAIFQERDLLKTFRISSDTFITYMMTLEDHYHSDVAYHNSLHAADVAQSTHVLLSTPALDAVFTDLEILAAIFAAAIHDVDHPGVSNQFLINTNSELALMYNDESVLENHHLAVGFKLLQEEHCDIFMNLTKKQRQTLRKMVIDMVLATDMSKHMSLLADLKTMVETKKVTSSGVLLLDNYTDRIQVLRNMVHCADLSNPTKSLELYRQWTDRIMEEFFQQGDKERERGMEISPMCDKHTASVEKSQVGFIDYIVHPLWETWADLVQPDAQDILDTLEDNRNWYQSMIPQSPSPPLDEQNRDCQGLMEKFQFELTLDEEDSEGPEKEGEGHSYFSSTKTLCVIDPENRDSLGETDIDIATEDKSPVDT

| SMILES | IC50 [1, 6] [nM] | IC50 [2] [nM] | IC50 [3] [nM] | Emax [3] [%] | further results |
| --- | --- | --- | --- | --- | --- |
| C[Si]1(C)CCN(c2cnc(C3=CCN(c4nc5c(c(NC6(CO)CCC6)n4)[S@+]([O-])CC5)CC3)nc2)CC1 [Compound 54] | < 10 | < 10 | 10 to 50 | 78.4 |  |
| CC1=C(c2ccc(Cl)cc2)CCN(c2nc3c(c(NC4(CO)CCC4)n2)[S+]([O-])CC3)C1 (stereo not shown) [Compound 36] |  |  |  |  | IC50 [4]: < 10 nM |
| N#CC1(c2cnc(C3=CCN(c4nc5c(c(NC6(CO)CCC6)n4)[S@+]([O-])CC5)CC3)nc2)CC1 [Compound 64] | < 10 | 10 to 50 | < 10 | 70.8 |  |
| CC(=O)N1CCN2c3ccc(-c4nc5c(c(NC6(CO)CCC6)n4)[S+]([O-])CC5)cc3OCC2C1 (single isomer, unassigned) [Compound 78-1] | 10 to 50 |  | < 10 | 61.2 |  |

Now from value to compound, other results behind:

| IC50 [1, 6] [nM] | IC50 [2] [nM] | IC50 [3] [nM] | SMILES | Emax [3] [%] | further results |
| --- | --- | --- | --- | --- | --- |
| < 10 | 10 to 50 | 50 to 100 | [O-][S@+]1CCc2nc(N3Cc4cc5c(cc4C3)CCC5)nc(NC3(CO)CCC3)c21 [Compound 69] | 74.4 |  |
| < 10 | < 10 | < 10 | CC#Cc1cnc(C2=CCN(c3nc4c(c(NC5(CO)CCC5)n3)[S@+]([O-])CC4)CC2)nc1 [Compound 76] | 73.8 |  |
| < 10 | < 10 | < 10 | C#Cc1ccc(C2=CCN(c3nc4c(c(NC5(CO)CCC5)n3)[S@+]([O-])CC4)CC2)nc1 [Compound 70] | 70.5 |  |
| < 10 | < 10 |  | [O-][S@+]1CCc2nc(N3CC=C(c4ccc(Cl)cc4)CC3)nc(NC3(CO)CCC3)c21 [Compound 1] |  | IC50 ([1]; values in text, read-out: IC50 against PDE4B2): 2.45 nM; F ([5]; i.g. (10 mg/kg)): 76.2 ± 4.7%; AUC(0-t) [5, 7]: 8660 ± 759 ng·h/mL; clearance [5, 7]: 4.55 ± 0.46 mL/min/kg; half-life [5, 7]: 6.17 ± 0.71 h; Vd ([5]; male, ICR, mouse, iv, plasma, i.v. (5 mg/kg), read-out: Vdss): 2.07 ± 0.2 L/kg; AUC(0-t) [5, 8]: 26400 ± 1640 ng·h/mL; half-life [5, 8]: 15.7 ± 4.1 h |
